Assays:
HiBiT-BRM = molecular target: T1, HiBiT-BRM (Homo sapiens, UniProt P51531); test: HiBiT-BRM cell-based degradation assay (Nano-Glo HiBiT Lytic Detection); details: HeLa cells expressing HiBiT-BRM, 24 h; for DC50: read-out: BRM HiBit Degradation IC50
T1 construct: expressed in transfected cells
Method in brief: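 Luminescence from HiBiT–LgBiT complementation in lysates of a stable HiBiT-BRM HeLa line measured after 24 h compound exposure. Degradation expressed as percent relative to DMSO-treated cells and cells given 2 μM of a known BRM/BRG1 degrader.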

HiBit-BRG1 = molecular target: T2, HiBit-BRG1 (Homo sapiens, UniProt P51532); test: HiBit-BRG1 cell-based degradation assay (Nano-Glo HiBiT Lytic Detection); details: HeLa cells expressing HiBit-BRG1 and LgBit, 24 h; for DC50: read-out: BRG1 HiBit Degradation IC50; for Dmax: read-out: BRG1 HiBit Degradation Maximum (%)
T2 construct: expressed in transfected cells
T2 sequence (P51532 whole entry): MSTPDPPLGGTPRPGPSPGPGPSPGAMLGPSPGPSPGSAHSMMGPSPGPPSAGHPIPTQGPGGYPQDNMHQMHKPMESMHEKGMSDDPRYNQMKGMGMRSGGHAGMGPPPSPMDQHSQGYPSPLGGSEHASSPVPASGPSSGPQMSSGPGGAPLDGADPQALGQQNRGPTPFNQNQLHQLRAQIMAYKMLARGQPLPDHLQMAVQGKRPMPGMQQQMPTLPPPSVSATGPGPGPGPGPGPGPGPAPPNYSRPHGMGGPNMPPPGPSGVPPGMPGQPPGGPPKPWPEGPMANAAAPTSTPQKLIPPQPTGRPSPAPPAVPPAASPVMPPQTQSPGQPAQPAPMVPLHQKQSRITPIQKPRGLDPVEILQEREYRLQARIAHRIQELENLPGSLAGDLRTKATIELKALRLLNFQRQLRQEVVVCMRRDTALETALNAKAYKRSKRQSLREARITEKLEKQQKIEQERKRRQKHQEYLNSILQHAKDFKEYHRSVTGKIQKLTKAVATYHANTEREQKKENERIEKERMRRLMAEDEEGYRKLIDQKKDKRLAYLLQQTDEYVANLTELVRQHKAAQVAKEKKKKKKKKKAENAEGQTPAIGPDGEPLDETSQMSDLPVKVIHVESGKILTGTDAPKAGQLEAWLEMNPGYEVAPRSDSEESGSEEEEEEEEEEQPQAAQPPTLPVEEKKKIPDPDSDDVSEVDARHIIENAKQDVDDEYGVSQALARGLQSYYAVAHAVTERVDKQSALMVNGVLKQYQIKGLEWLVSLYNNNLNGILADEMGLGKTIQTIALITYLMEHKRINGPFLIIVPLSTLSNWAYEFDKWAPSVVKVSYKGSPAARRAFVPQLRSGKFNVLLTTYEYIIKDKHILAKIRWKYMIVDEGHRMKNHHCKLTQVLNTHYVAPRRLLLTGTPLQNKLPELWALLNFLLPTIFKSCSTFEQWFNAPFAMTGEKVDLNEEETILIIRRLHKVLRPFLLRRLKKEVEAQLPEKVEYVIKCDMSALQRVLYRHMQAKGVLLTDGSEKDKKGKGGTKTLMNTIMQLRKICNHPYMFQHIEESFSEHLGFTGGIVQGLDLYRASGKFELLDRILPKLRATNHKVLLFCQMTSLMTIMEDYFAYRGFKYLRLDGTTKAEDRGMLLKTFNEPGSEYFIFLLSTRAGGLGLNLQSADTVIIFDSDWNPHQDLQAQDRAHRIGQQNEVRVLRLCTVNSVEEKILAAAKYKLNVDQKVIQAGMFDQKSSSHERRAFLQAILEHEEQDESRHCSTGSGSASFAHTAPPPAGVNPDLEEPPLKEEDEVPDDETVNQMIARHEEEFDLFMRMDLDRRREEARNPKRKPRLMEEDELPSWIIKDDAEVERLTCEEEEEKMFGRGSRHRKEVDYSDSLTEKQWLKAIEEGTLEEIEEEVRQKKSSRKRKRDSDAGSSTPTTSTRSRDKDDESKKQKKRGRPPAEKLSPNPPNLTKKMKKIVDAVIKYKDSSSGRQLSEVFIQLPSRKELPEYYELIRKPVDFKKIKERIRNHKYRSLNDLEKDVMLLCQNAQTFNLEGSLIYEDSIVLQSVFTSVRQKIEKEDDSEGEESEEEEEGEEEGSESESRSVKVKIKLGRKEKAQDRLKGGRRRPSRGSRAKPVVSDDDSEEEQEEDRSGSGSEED
Method in brief: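 Luminescence from reconstituted NanoBiT luciferase after lytic detection served as read-out of remaining HiBit-BRG1 in stable HeLa cells, which also express LgBit. Cells were seeded at 5000 per well and incubated with compound for 24 h. DMSO and a 2 μM known degrader defined the control range.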

T1 sequence (P51531 whole entry): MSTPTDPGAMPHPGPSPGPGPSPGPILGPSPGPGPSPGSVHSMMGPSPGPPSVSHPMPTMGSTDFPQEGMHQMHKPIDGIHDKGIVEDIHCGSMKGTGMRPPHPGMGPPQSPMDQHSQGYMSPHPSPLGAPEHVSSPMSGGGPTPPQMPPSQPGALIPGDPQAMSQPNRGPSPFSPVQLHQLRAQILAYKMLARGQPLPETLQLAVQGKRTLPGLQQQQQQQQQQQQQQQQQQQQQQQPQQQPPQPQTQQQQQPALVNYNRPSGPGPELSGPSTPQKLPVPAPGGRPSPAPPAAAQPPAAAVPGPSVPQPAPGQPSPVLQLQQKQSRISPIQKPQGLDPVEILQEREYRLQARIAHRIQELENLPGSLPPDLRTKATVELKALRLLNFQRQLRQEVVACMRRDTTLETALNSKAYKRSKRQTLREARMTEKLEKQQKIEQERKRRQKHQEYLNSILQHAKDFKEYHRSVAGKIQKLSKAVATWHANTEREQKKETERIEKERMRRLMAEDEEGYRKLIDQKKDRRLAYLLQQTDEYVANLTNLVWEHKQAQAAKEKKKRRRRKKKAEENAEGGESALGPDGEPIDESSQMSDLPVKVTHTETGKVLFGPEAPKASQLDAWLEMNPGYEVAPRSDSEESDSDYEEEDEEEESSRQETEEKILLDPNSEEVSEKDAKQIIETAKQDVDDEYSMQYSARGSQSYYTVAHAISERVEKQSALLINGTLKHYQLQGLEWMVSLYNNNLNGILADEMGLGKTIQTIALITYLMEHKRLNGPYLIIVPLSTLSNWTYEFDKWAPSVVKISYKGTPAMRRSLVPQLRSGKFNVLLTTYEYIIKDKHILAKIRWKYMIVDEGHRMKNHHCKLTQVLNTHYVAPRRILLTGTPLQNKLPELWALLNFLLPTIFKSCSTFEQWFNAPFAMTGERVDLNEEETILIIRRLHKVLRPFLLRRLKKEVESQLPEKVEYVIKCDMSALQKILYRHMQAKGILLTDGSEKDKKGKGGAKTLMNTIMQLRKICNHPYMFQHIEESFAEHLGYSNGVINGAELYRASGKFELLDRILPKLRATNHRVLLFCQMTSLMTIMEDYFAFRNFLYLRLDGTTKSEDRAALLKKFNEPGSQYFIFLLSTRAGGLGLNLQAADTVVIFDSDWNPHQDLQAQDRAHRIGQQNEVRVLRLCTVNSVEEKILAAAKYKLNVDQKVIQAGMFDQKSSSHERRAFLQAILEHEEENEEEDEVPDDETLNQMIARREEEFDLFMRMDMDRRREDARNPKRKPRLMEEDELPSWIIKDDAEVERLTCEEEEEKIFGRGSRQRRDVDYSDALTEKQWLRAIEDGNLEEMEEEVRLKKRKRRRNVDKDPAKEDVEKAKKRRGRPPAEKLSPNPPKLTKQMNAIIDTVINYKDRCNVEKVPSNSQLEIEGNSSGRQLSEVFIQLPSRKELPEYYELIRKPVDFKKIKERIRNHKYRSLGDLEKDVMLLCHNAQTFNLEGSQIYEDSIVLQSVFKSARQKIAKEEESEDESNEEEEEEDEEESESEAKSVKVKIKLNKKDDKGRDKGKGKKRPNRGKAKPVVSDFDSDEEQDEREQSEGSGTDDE

SMILES | BRM HiBit Degradation Maximum (%) (HiBiT-BRM) | DC50 (HiBiT-BRM) | DC50 (HiBit-BRG1) | Dmax (HiBit-BRG1)
Nc1nnc(-c2ccccc2O)cc1OCCc1ccc(CNC(=O)CCCCCCCCCNc2ccc3c(c2)C(=O)N(C2CCC(=O)NC2=O)C3=O)cc1 (stereo not shown) [Compound 75, N-(4-(2-((3-amino-6-(2-hydroxyphenyl)pyridazin-4-yl)oxy)ethyl)benzyl)-10-((2-(2,6-dioxopiperidin-3-yl)-1,3-dioxoisoindolin-5-yl)amino)decanamide] | C (“C” indicates maximum degradation <50%) | > 1000 nM | > 1000 nM | 
Nc1nnc(-c2ccccc2O)cc1N1CCN(CC(=O)N2CC(COc3cccc4c3C(=O)N(C3CCC(=O)NC3=O)C4=O)C2)CC1 (stereo not shown) [Compound 76, 4-[[1-(2-[4-[3-amino-6-(2-hydroxyphenyl)pyridazin-4-yl]piperazin-1-yl]acetyl)azetidin-3-yl]methoxy]-2-(2,6-dioxopiperidin-3-yl)isoindole-1,3-dione] | C (“C” indicates maximum degradation <50%) | > 1000 nM | > 1000 nM | < 50%
Nc1nnc(-c2ccccc2O)cc1N1CCN(C(=O)C2CC2CNC(=O)COc2cccc3c2C(=O)N(C2CCC(=O)NC2=O)C3=O)CC1 (stereo not shown) [Compound 77, N-[(2-[4-[3-amino-6-(2-hydroxyphenyl)pyridazin-4-yl]piperazine-1-carbonyl]cyclopropyl)methyl]-2-[[2-(2,6-dioxopiperidin-3-yl)-1,3-dioxoisoindol-4-yl]oxy]acetamide] | C (“C” indicates maximum degradation <50%) | > 1000 nM | > 1000 nM | 
Nc1nnc(-c2ccccc2O)cc1N1CCN(C(=O)C2CC2CNC(=O)COc2ccc3c(c2)C(=O)N(C2CCC(=O)NC2=O)C3=O)CC1 (stereo not shown) [Compound 78, N-[(2-[4-[3-amino-6-(2-hydroxyphenyl)pyridazin-4-yl]piperazine-1-carbonyl]cyclopropyl)methyl]-2-[[2-(2,6-dioxopiperidin-3-yl)-1,3-dioxoisoindol-5-yl]oxy]acetamide] | C (“C” indicates maximum degradation <50%) | > 1000 nM | > 1000 nM | 
Nc1nnc(-c2ccccc2O)cc1N1CCN(CC(=O)NCCS(=O)(=O)CCNc2cccc3c2C(=O)N(C2CCC(=O)NC2=O)C3=O)CC1 (stereo not shown) [Compound 79, 2-[4-[3-amino-6-(2-hydroxyphenyl)pyridazin-4-yl]piperazin-1-yl]-N-[2-(2-[[2-(2,6-dioxopiperidin-3-yl)-1,3-dioxoisoindol-4-yl]amino]ethanesulfonyl)ethyl]acetamide] | C (“C” indicates maximum degradation <50%) | > 1000 nM | > 1000 nM | < 50%
Nc1nnc(-c2ccccc2O)cc1N1CCN(CC(=O)NCCCCS(=O)(=O)CCCNc2cccc3c2C(=O)N(C2CCC(=O)NC2=O)C3=O)CC1 (stereo not shown) [Compound 80, 2-[4-[3-amino-6-(2-hydroxyphenyl)pyridazin-4-yl]piperazin-1-yl]-N-[4-(3-[[2-(2,6-dioxopiperidin-3-yl)-1,3-dioxoisoindol-4-yl]amino]propanesulfonyl)butyl]acetamide] | C (“C” indicates maximum degradation <50%) | > 1000 nM | > 1000 nM | < 50%
Nc1nnc(-c2ccccc2O)cc1N1CCN(CC(=O)N2CC(COc3ccc4c(c3)C(=O)N(C3CCC(=O)NC3=O)C4=O)C2)CC1 (stereo not shown) [Compound 81, 5-((1-(2-(4-(3-amino-6-(2-hydroxyphenyl)pyridazin-4-yl)piperazin-1-yl)acetyl)azetidin-3-yl)methoxy)-2-(2,6-dioxopiperidin-3-yl)isoindoline-1,3-dione] | C (“C” indicates maximum degradation <50%) | > 1000 nM | > 1000 nM | < 50%
Nc1nnc(-c2ccccc2O)cc1N1CCN(CC(=O)NC2CCN(CCOc3ccc4c(c3)C(=O)N(C3CCC(=O)NC3=O)C4=O)CC2)CC1 (stereo not shown) [Compound 82, 2-[4-[3-amino-6-(2-hydroxyphenyl)pyridazin-4-yl]piperazin-1-yl]-N-[1-(2-[[2-(2,6-dioxopiperidin-3-yl)-1,3-dioxoisoindol-5-yl]oxy]ethyl)piperidin-4-yl]acetamide] | C (“C” indicates maximum degradation <50%) | > 1000 nM | > 1000 nM | < 50%
Nc1nnc(-c2ccccc2O)cc1N1CCN(CC(=O)NCCCCCCCCNc2ccc3c(c2)C(=O)N(C2CCC(=O)NC2=O)C3=O)CC1 (stereo not shown) [Compound 83, 2-[4-[3-amino-6-(2-hydroxyphenyl)pyridazin-4-yl]piperazin-1-yl]-N-(8-[[2-(2,6-dioxopiperidin-3-yl)-1,3-dioxoisoindol-5-yl]amino]octyl)acetamide] | B (“B” indicates maximum degradation ≥50%) | > 100 nM | > 1000 nM | < 50%
Nc1nnc(-c2ccccc2O)cc1N1CCN(CCNC(=O)CCCOc2cccc3c2C(=O)N(C2CCC(=O)NC2=O)C3=O)CC1 (stereo not shown) [Compound 84, N-(2-(4-(3-amino-6-(2-hydroxyphenyl)pyridazin-4-yl)piperazin-1-yl)ethyl)-4-((2-(2,6-dioxopiperidin-3-yl)-1,3-dioxoisoindolin-4-yl)oxy)butanamide] | C (“C” indicates maximum degradation <50%) | > 1000 nM | > 1000 nM | < 50%
Cc1ncsc1-c1ccc(CNC(=O)[C@@H]2C[C@@H](O)CN2C(=O)[C@@H](NC(=O)COCCOCCOCCNC(=O)CN2CCN(c3cc(-c4ccccc4O)nnc3N)CC2)C(C)(C)C)cc1 [Compound 86, (2S,4R)-1-[(2S)-2-[2-(2-[2-[2-(2-[4-[3-amino-6-(2-hydroxyphenyl)pyridazin-4-yl]piperazin-1-yl]acetamido)ethoxy]ethoxy]ethoxy)acetamido]-3,3-dimethylbutanoyl]-4-hydroxy-N-[[4-(4-methyl-1,3-thiazol-5-yl)phenyl]methyl]pyrrolidine-2-carboxamide] | C (“C” indicates maximum degradation <50%) | > 1000 nM | > 1000 nM | < 50%
Nc1nnc(-c2ccccc2O)cc1N1CCN(CC(=O)NCCCCCNc2ccc3c(c2)C(=O)N(C2CCC(=O)NC2=O)C3=O)CC1 (stereo not shown) [Compound 87, 2-[4-[3-amino-6-(2-hydroxyphenyl)pyridazin-4-yl]piperazin-1-yl]-N-(5-[[2-(2,6-dioxopiperidin-3-yl)-1,3-dioxo-2,3-dihydro-1H-isoindol-5-yl]amino]pentyl)acetamide; formic acid] | B (“B” indicates maximum degradation ≥50%) | > 1000 nM | > 1000 nM | > 50%
Nc1nnc(-c2ccccc2O)cc1N1CCN(CCNC(=O)CCCCCCCCCCNc2cccc3c2C(=O)N(C2CCC(=O)NC2=O)C3=O)CC1 (stereo not shown) [Compound 88, N-(2-[4-[3-amino-6-(2-hydroxyphenyl)pyridazin-4-yl]piperazin-1-yl]ethyl)-11-[[2-(2,6-dioxopiperidin-3-yl)-1,3-dioxoisoindol-4-yl]amino]undecanamide] | C (“C” indicates maximum degradation <50%) | > 1000 nM | > 1000 nM | < 50%

— patent US20230150974A1 (Foghorn Therapeutics Inc., priority 2020, published 2023)
